The source of these data is patent publication US20050058636A1, “Medicament against thrombotic diseases” (priority 2002, published 2005).

The subject of one assay is PAI-1. The experiment in a line: Urokinase-mediated clot lysis in the presence of PAI-1. It is filed as biochemical. The settings on record: not shown.
For assay [1], the target named is T1, platelet αIIbβ3-integrin with vitronectin (Homo sapiens, UniProt P04004).
T1 sequence (P04004 20-478): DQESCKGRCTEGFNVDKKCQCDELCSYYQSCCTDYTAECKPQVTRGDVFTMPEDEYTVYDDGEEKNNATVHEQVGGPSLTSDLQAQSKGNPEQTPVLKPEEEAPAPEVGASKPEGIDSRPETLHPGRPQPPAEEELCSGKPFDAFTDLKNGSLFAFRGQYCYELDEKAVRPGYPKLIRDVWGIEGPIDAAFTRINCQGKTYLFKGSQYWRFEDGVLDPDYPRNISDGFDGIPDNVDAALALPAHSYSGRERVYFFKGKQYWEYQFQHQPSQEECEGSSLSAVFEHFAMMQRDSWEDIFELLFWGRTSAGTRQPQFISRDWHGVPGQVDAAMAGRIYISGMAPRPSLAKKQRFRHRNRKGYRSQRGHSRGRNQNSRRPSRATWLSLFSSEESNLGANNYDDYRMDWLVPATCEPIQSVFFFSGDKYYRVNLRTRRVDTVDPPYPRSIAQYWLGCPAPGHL
As to the kind of experiment: Binding of vitronectin to αIIbβ3-integrin. Conditions: vitronectin 2 μg/ml, immobilized αIIbβ3-integrin 5 μg/ml, 10 μM ZnCl2 (FIG. 3). As for the experimental part: Microtiter plates were coated with 5 μg/ml αIIbβ3-integrin in Tris-buffered saline, pH 7.4, containing 1 mM CaCl2, 1 mM MgCl2 overnight at 4° C. and then blocked with 3% (w/v) bovine serum albumin. Binding of multimeric vitronectin (2 μg/ml) was performed in a final volume of 50 μl Tris-buffered saline containing 0.1% Tween-20, 0.3% (w/v) bovine serum albumin, 1 mM CaCl2 and 1 mM MgCl2 for 2 h at 22° C. in the absence or presence of 10 μM ZnCl2 and different kininogen forms. After the incubation period, monoclonal anti-vitronectin antibody VN7 at a concentration of 125 ng/ml was added, followed by addition of 1:1000 diluted peroxidase-conjugated goat anti-mouse immunoglobulins, respectively. Binding was quantitated as described above.
FIG. 3 The binding of vitronectin (2 μg/ml) to immobilized αIIbβ3-integrin (5 μg/ml) in the absence or presence of increasing concentrations of PAI-1 (filled squares), HKa (filled circles) or GST-domain 5 (open circles) in a buffer containing 10 μM ZnCl2 was carried out. Specific binding is presented as absorbance at 405 nm.

Another assay concerns platelets. As to the kind of experiment: Platelet adhesion onto vitronectin-coated plates. Type of assay: cell-based. Conditions: competitors each 250 nM (FIG. 4). The method, then:
Multiwell plates were coated with 5 μg/ml multimeric vitronectin (dissolved in bicarbonate buffer, pH 9.6) and blocked with 3% (wt/vol) bovine serum albumin for 16 h at 4° C. Platelets stained with calcein acetoxymethyl ester (calcein-AM, 2.5 μM) (15 min at 37° C. in the dark) at a density of 5×10^6 cells suspended in 50 μl HEPES-Tyrode buffer containing 4 mM MgCl2 were added together with the respective competitors and incubated for 30 min at 37° C. After three washes with phosphate buffered saline, bound platelets were lysed with 100 μl of lysis buffer (150 mM NaCl, 10 mM Tris-CH1, pH 7.5, 5 mM EDTA, 1% (wt/vol) NP-40, 1 mM phenyl-methylsulfonyl fluoride, 20 μg/ml soybean trypsin inhibitor) and quantified in a fluorescent plate reader (excitation filter 492 nm, emission filter 535 nm).
FIG. 4. The adhesion of platelets to vitronectin in the absence (−) or presence of HK, HKa, GST-domain 5(D5), or the peptides HK483 and HK486 (each 250 nM) was carried out. Cell adhesion is presented as % of control.

The target of assay [2] is T2, binding of PAI-1 to vitronectin in PAI-1-depleted extracellular matrix of endothelial cells (Homo sapiens, UniProt P04004).
T2 construct: The extracellular matrix of human umbilical vein endothelial cells was prepared according to standard procedures; endogenous in cells; host or cells: extracellular matrix of human umbilical vein endothelial cells, glycine-treated
T2 sequence (P04004 20-478): T1 sequence (P04004 20-478)
The experiment in a line: Binding of PAI-1 to endothelial cell matrix. The settings on record: 2 μg/ml PAI-1; competitors each 500 nM; 10 μM ZnCl2 (FIG. 1). The method, then: The extracellular matrix of human umbilical vein endothelial cells was prepared according to standard procedures. PAI-1-depleted extracellular matrix was obtained by subsequent incubation with glycine (0.1 M, pH 2.3) for 2 h at 25° C. Wells were washed and blocked with phosphate buffered saline containing 3% (wt/vol) bovine serum albumin before proceeding with binding assays. Binding of PAI-1 (2 μg/ml) to the extracellular matrix was performed in a final volume of 50 μl Tris-buffered saline containing 0.1% Tween-20, 0.3% (wt/vol) bovine serum albumin for 2 h at 22° C. in the absence or presence of […] and different kininogen forms. Following the incubation period and a washing step, bound PAI-1 was quantitated by anti-human PAI-1 monoclonal antibody 12A4, followed by addition of 1:1000 diluted peroxidase-conjugated goat anti-mouse immunoglobulins. The conversion of the substrate 2,2,-azino-di(3-ethyl) benz-thiazoline sulphate was monitored at 405 nm in a Thermomax microtiter plate reader. […]
FIG. 1 The binding of 2 μg/ml PAI-1 to PAI-1-depleted (2 h glycine preincubation) extracellular matrix of cultured endothelial cells was tested in the absence (−)or presence of HK, HKa, GST-domain 5 (D5), the peptides HK483 and HK486 (each 500 nM) in a buffer containing 10 μM ZnCl2. Specific binding of PAI-1 is presented as absorbance at 405 nm.

A further assay has as its system platelet-rich plasma. As to the kind of experiment: Aggregation of platelet-rich plasma. Conditions: Adenosin-diphosphate (5 μM)-induced; competitors each 1000 nM (FIG. 5). Type of assay: cell-based. The method, then: Platelet-rich plasma from fresh whole blood in sodium citrate was prepared by centrifugation of anticoagulated whole blood at 150 g for 20 min. After incubation of 0.45 ml of platelet rich plasma with different kininogen forms as indicated in the figure legends, and addition of 5 μl of […] at a final concentration of 5 μM, platelet aggregation was induced. Aggregation was quantitated by following the change in light transmission in a standardized aggregometer.
FIG. 5 Adenosin-diphosphate (5 μM)-induced aggregation of platelet-rich plasma was performed in the absence (−) or presence of GST-domain 5 (D5), or the peptides HK483 and HK486 (each 1000 nM). Platelet aggregation is presented as % of control.

For the substance “His-483-Gly-497 (HGHGKHKNKGKKNGK; UniProt P01042 501-515, looked up, fragment) [HK483, peptide derived from the carboxy-terminus of the domain 5 of HK]”, in the assay with PAI-1, the “urokinase-mediated clot lysis, which is inhibited in the presence of PAI-1” value was “enhance”. The “interaction of platelet αIIbβ3-integrin with vitronectin” value in assay [1] is given as “block”. The “αIIbβ3-integrin-mediated platelet adhesion to vitronectin” value in the assay with platelets is recorded as “block”. The “binding of PAI-1 to vitronectin in PAI-1-depleted (glycine-treated) extracellular matrix of endothelial cells” value in assay [2] is “inhibited”. Also, the “aggregation of platelet-rich plasma” value in the assay with platelet-rich plasma is given as “inhibit”.
